Measured values: the supplement of paper PMC8617591

Columns and labels:
[1] = system: Mycobacterium tuberculosis Erdman (autoluminescent); experiment: total FIC50 (Loewe) at 50% inhibition, three-drug combination (log2); higher = more antagonistic
Method: (§1)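 DiaMOND equipotent three-drug combination dose responses (10 doses, 1.5- or 2-fold spacing, centred on IC90) against autoluminescent M. tuberculosis Erdman in 8 in vitro models. Read-out is OD600, or luminescence for the intracellular and dormancy models, normalised to untreated wells. Hill-fit Einf, AUC25 and GRinf are potency metrics; FIC50 and FIC90 are total Loewe fractional inhibitory concentrations as log2 (negative = synergy).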

[2] = system: Mycobacterium tuberculosis Erdman (autoluminescent); experiment: total FIC90 (Loewe) at 90% inhibition, three-drug combination (log2); higher = more antagonistic
Method: as §1

[3] = system: Mycobacterium tuberculosis Erdman (autoluminescent); experiment: Einf, fitted maximum growth inhibition of three-drug combination (fraction); higher = stronger maximal inhibition
Method: as §1

[4] = system: Mycobacterium tuberculosis Erdman (autoluminescent); experiment: AUC25, normalised area under dose response up to IC25 (three-drug combination) (fraction (0-1)); higher = more potent at low dose
Method: as §1

[5] = system: Mycobacterium tuberculosis Erdman (autoluminescent); experiment: GRinf, maximum normalised growth rate inhibition (three-drug combination) (unitless (-1 to 1)); higher = less effect (negative = killing)
Method: as §1

COc1nc2ccc(Br)cc2cc1[C@@H](c1ccccc1)[C@@](O)(CCN(C)C)c1cccc2ccccc12 [bedaquiline] + CC(=O)NC[C@H]1CN(c2ccc(N3CCOCC3)c(F)c2)C(=O)O1 [linezolid] + CO[C@H]1/C=C/O[C@@]2(C)Oc3c(C)c(O)c4c(O)c(c(/C=N/N5CCN(C6CCCC6)CC5)c(O)c4c3C2=O)NC(=O)/C(C)=C\C=C\[C@H](C)[C@H](O)[C@@H](C)[C@@H](O)[C@@H](C)[C@H](OC(C)=O)[C@@H]1C [rifapentine]
Details | AUC25, [4] | Einf, [3] | GRinf, [5] | total FIC50, [1] | total FIC90, [2]
in vitro model: acidic pH 5.7, time point: constant (~7 days, model-specific) | 0.108 | 0.926 | -0.244 | 0.654 | –
in vitro model: acidic pH 5.7, time point: terminal (~4-5 doublings, model-specific) | 0.0848 | 0.986 | -0.26 | 0.615 | 0.662
in vitro model: intracellular J774, time point: constant = terminal | – | 0.933 | -0.098 | – | -0.0532

Details | AUC25, [4] | Einf, [3] | GRinf, [5] | total FIC50, [1] | total FIC90, [2]
in vitro model: butyrate, time point: constant (~7 days, model-specific) | 0.0812 | 0.921 | -0.0254 | 0.437 | -0.119
in vitro model: butyrate, time point: terminal (~4-5 doublings, model-specific) | 0.0511 | 0.948 | -0.00583 | 0.274 | -0.145
in vitro model: cholesterol 0.05 mM, time point: constant (~7 days, model-specific) | 0.127 | 0.761 | -0.281 | -0.0889 | –
in vitro model: cholesterol 0.05 mM, time point: terminal (~4-5 doublings, model-specific) | 0.121 | 0.93 | -0.354 | 0.0726 | 0.0812
in vitro model: cholesterol-high 0.2 mM, time point: constant (~7 days, model-specific) | 0.0873 | 0.998 | -0.89 | 0.58 | 1.04
in vitro model: cholesterol-high 0.2 mM, time point: terminal (~4-5 doublings, model-specific) | 0.1 | 1 | -0.637 | 0.404 | 0.653
in vitro model: dormancy (butyrate + nitrate, low O2), time point: constant (~7 days, model-specific) | 0.0901 | 0.933 | 0.0917 | 0.915 | 1.57
in vitro model: dormancy (butyrate + nitrate, low O2), time point: terminal (~4-5 doublings, model-specific) | 0.0384 | 0.985 | -0.095 | 0.965 | 0.698
in vitro model: standard 7H9 glycerol, time point: constant = terminal | 0.0734 | 0.939 | -0.014 | 0.253 | 0.00862
in vitro model: valerate, time point: constant (~7 days, model-specific) | 0.0755 | 0.899 | -0.197 | 0.659 | –
in vitro model: valerate, time point: terminal (~4-5 doublings, model-specific) | 0.0423 | 0.945 | -0.0248 | 0.581 | 0.338

COc1nc2ccc(Br)cc2cc1[C@@H](c1ccccc1)[C@@](O)(CCN(C)C)c1cccc2ccccc12 [bedaquiline] + CC(=O)NC[C@H]1CN(c2ccc(N3CCOCC3)c(F)c2)C(=O)O1 [linezolid] + CO[C@H]1/C=C/O[C@@]2(C)Oc3c(C)c(O)c4c(O)c(c(/C=N/N5CCN(C)CC5)c(O)c4c3C2=O)NC(=O)/C(C)=C\C=C\[C@H](C)[C@H](O)[C@@H](C)[C@@H](O)[C@@H](C)[C@H](OC(C)=O)[C@@H]1C [rifampicin]
Details | AUC25, [4] | Einf, [3] | GRinf, [5] | total FIC50, [1] | total FIC90, [2]
in vitro model: acidic pH 5.7, time point: constant (~7 days, model-specific) | 0.0983 | 0.934 | -0.257 | 0.731 | –
in vitro model: acidic pH 5.7, time point: terminal (~4-5 doublings, model-specific) | 0.0798 | 0.99 | -0.249 | 0.737 | 0.559
in vitro model: intracellular J774, time point: constant = terminal | – | 0.93 | -0.121 | – | -0.0392

Details | AUC25, [4] | Einf, [3] | GRinf, [5] | total FIC50, [1] | total FIC90, [2]
in vitro model: butyrate, time point: constant (~7 days, model-specific) | 0.0847 | 0.914 | -0.0141 | 0.177 | -0.362
in vitro model: butyrate, time point: terminal (~4-5 doublings, model-specific) | 0.0706 | 0.955 | -0.0153 | 0.082 | -0.195
in vitro model: cholesterol 0.05 mM, time point: constant (~7 days, model-specific) | 0.149 | 0.744 | -0.202 | -0.0465 | –
in vitro model: cholesterol 0.05 mM, time point: terminal (~4-5 doublings, model-specific) | 0.135 | 0.937 | -0.321 | 4.18 | -0.205
in vitro model: cholesterol-high 0.2 mM, time point: constant (~7 days, model-specific) | 0.095 | 0.988 | -0.655 | 0.47 | 0.612
in vitro model: cholesterol-high 0.2 mM, time point: terminal (~4-5 doublings, model-specific) | 0.0921 | 1 | -0.646 | 0.65 | 0.504
in vitro model: dormancy (butyrate + nitrate, low O2), time point: constant (~7 days, model-specific) | 0.0823 | 0.941 | 0.177 | 0.618 | 0.781
in vitro model: dormancy (butyrate + nitrate, low O2), time point: terminal (~4-5 doublings, model-specific) | 0.0706 | 0.982 | -0.387 | 0.272 | 0.748
in vitro model: standard 7H9 glycerol, time point: constant = terminal | 0.0714 | 0.938 | -0.0288 | 0.312 | -0.401
in vitro model: valerate, time point: constant (~7 days, model-specific) | 0.0495 | 0.895 | 0.063 | 0.886 | –
in vitro model: valerate, time point: terminal (~4-5 doublings, model-specific) | 0.0389 | 0.953 | -0.012 | 0.712 | 0.323

COc1nc2ccc(Br)cc2cc1[C@@H](c1ccccc1)[C@@](O)(CCN(C)C)c1cccc2ccccc12 [bedaquiline] + CC(=O)NC[C@H]1CN(c2ccc(N3CCOCC3)c(F)c2)C(=O)O1 [linezolid] + COc1c(N2C[C@@H]3CCCN[C@@H]3C2)c(F)cc2c(=O)c(C(=O)O)cn(C3CC3)c12 [moxifloxacin]
Details | AUC25, [4] | Einf, [3] | GRinf, [5] | total FIC50, [1] | total FIC90, [2]
in vitro model: acidic pH 5.7, time point: constant (~7 days, model-specific) | 0.108 | 0.833 | -0.483 | 0.265 | –
in vitro model: acidic pH 5.7, time point: terminal (~4-5 doublings, model-specific) | 0.0466 | 0.934 | -0.2 | 0.43 | -0.0182
in vitro model: intracellular J774, time point: constant = terminal | – | 0.862 | -0.242 | – | 1.32

Details | AUC25, [4] | Einf, [3] | GRinf, [5] | total FIC50, [1] | total FIC90, [2]
in vitro model: butyrate, time point: constant (~7 days, model-specific) | 0.0949 | 0.936 | -0.0894 | 0.691 | 0.695
in vitro model: butyrate, time point: terminal (~4-5 doublings, model-specific) | 0.0643 | 0.968 | -0.0714 | 0.693 | 0.691
in vitro model: cholesterol 0.05 mM, time point: constant (~7 days, model-specific) | 0.131 | 0.758 | -0.288 | 0.224 | –
in vitro model: cholesterol 0.05 mM, time point: terminal (~4-5 doublings, model-specific) | 0.144 | 0.966 | -0.449 | -0.0261 | -0.532
in vitro model: cholesterol-high 0.2 mM, time point: constant (~7 days, model-specific) | 0.11 | 0.992 | -0.761 | 0.524 | 0.835
in vitro model: cholesterol-high 0.2 mM, time point: terminal (~4-5 doublings, model-specific) | 0.108 | 1 | -0.836 | 0.657 | 1.04
in vitro model: dormancy (butyrate + nitrate, low O2), time point: constant (~7 days, model-specific) | 0.0831 | 0.921 | 0.149 | 0.916 | 0.891
in vitro model: dormancy (butyrate + nitrate, low O2), time point: terminal (~4-5 doublings, model-specific) | 0.0363 | 0.989 | -0.0826 | 1.62 | 1.09
in vitro model: standard 7H9 glycerol, time point: constant = terminal | 0.0873 | 0.971 | -0.102 | 0.152 | 0.63
in vitro model: valerate, time point: constant (~7 days, model-specific) | 0.118 | 0.902 | -0.144 | 0.407 | –
in vitro model: valerate, time point: terminal (~4-5 doublings, model-specific) | 0.0703 | 0.947 | -0.0335 | 0.697 | 0.911
